Source: patent US20070032529A1, “Pyrazole compounds and their use as antidiabetes agents” (Japan Tobacco Inc., priority 2005, published 2007)
Counter-ions that a name gives are not always drawn.

What was measured:
[1] = biological target: T1, recombinant human liver glycogen phosphorylase (Homo sapiens, UniProt P06737); assay: Measuring liver glycogen phosphorylase activity (forward reaction system, NADPH absorbance at 340 nm); format: biochemical
T1 construct: made in house; host or cells: Sf9 insect cells (crude homogenate, diluted, used as the enzyme solution)
T1 sequence (P06737 1-847): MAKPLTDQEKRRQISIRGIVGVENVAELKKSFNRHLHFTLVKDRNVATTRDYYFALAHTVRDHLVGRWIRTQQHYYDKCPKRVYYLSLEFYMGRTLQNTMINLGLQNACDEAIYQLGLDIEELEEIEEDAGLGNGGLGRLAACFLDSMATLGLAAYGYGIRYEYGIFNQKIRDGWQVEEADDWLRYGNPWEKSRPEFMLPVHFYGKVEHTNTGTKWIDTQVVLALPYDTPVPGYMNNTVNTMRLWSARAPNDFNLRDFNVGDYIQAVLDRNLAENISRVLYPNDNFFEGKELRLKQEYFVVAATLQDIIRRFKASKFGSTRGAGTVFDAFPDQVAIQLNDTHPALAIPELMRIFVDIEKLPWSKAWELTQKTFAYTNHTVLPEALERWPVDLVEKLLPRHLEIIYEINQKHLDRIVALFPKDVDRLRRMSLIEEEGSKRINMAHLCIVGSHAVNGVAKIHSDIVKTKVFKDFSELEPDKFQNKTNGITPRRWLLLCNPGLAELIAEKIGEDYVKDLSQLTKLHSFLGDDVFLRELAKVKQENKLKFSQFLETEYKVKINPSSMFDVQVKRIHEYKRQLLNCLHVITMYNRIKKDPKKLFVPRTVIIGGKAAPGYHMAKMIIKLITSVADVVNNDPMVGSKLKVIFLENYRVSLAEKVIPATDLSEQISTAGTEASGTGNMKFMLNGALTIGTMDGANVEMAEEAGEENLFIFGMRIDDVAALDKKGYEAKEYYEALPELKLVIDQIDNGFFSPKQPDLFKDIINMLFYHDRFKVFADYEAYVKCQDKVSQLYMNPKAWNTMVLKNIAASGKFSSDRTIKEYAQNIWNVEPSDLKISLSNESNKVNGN
How it was run: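 Compounds in 1% DMSO; activity taken as blank-subtracted 340 nm absorbance change across 75 min at room temperature. Forward reaction: glucose-1-phosphate released from glycogen converted by coupling enzymes, yielding NADPH; enzyme from recombinant Sf9 homogenate, reaction containing glucose, pH 6.8. IC50 from two-point linear interpolation.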

db/db mice = assay: Measuring blood plasma glucose concentration in db/db mice (hypoglycemic effect); format: in vivo; parameters: key: ++: compounds exhibiting statistically significant hypoglycemic effect at a dose of 10 mg/kg or less; +: compounds exhibiting not significant but obvious hypoglycemic effect at a dose of 10 mg/kg; settings: for vivo (hypoglycemic effect in db/db mice): db/db mice fasted 4 h, oral administration, plasma glucose 1 and 3 hours after administration, dose 10 mg/kg or less, Dunnett test vs solvent; for vivo (hypoglycemic effect): db/db mice, blood plasma glucose, dose of 10 mg/kg or less
Procedure: 2. Exemplary Test (2) Method for Measuring Blood Plasma Glucose Concentration
Using db/db mice representing an obesity type of diabetic model were used to examine the effect of compound (1) of the present invention on glucose concentrations in plasma. Plasma glucose concentrations of the db/db mice (9-18 weeks old) were measured, and the mice were divided into groups each of 5 or 8 mice such that there would be no difference in the average value of plasma glucose concentrations. After fasting for four hours, the example compound or the solvent (0.5% methylcellulose) was administered orally to the db/db mice, and plasma glucose concentrations were measured 1 and 3 hours after administration. The analysis of the hypoglycemic effect of the example compound was performed through a statistical test at every hour between the group receiving the solvent and the groups of example compound (Dunnett test).

[2] = enzyme inhibitory activity with respect to liver glycogen phosphorylase, class symbols
[3] = human liver glycogen phosphorylase, class symbol

Row | SMILES | IC50 [1, 2] | vivo (hypoglycemic effect in db/db mice) (db/db mice) | IC50 [1, 3] | vivo (hypoglycemic effect) (db/db mice) | vivo (hypoglycemic effect in db/db mice) (db/db mice; 10 mg/kg)
1 | CCCN(Cc1ccc(Cl)nc1)C(=O)c1cc(NC(=O)c2cc(F)c(F)cc2Cl)[nH]n1 [Example 1-133] | < 0.1 µM | + | – | – | –
2 | CN(C)C=Nc1ccc(CNC(=O)c2cc(NC(=O)c3cc(F)c(F)cc3Cl)[nH]n2)cc1.Cl [Example 6-23] | – | – | < 0.1 µM | + | –
3 | O=C(NCc1ccc(F)cc1F)c1cc(NC(=O)c2cc(F)c(F)cc2Cl)[nH]n1 [Example 1-19] | < 0.1 µM | + | – | – | –
4 | Cc1ccccc1CNC(=O)c1cc(NC(=O)c2cc(F)c(F)cc2Cl)[nH]n1 [Example 3-32] | < 0.1 µM | + | – | – | –
5 | CCCN(Cc1c(Cl)cncc1Cl)C(=O)c1cc(NC(=O)c2cc(F)c(F)cc2Cl)[nH]n1 [Example 1-136] | < 0.1 µM | + | – | – | –
6 | Cc1ccnc(CNC(=O)c2cc(NC(=O)c3cc(F)c(F)cc3Cl)[nH]n2)c1 [Example 2-9] | < 0.1 µM | + | – | – | –
7 | Cc1cc(F)c(F)cc1C(=O)Nc1cc(C(=O)N(C)c2ccc(C(=O)[O-])cc2)n[nH]1.[Na+] [Example 7-1] | – | – | < 0.1 µM | + | –
8 | COc1nc(C)ccc1CNC(=O)c1cc(NC(=O)c2cc(F)c(F)cc2Cl)[nH]n1 [Example 2-5, 5-(2-chloro-4,5-difluoro-benzoylamino)-1H-pyrazole-3-carboxylic acid (2-methoxy-6-methyl-pyridin-3-ylmethyl)-amide] | < 0.1 µM | ++ | – | – | –
9 | CCOc1ncccc1CNC(=O)c1cc(NC(=O)c2cc(F)c(F)cc2Cl)[nH]n1 [Example 3-41] | < 0.1 µM | ++ | – | – | –
10 | CN(C(=O)c1cc(NC(=O)c2cc(F)c(F)cc2Cl)[nH]n1)c1ccc(C(=O)O)cc1 [Example 4-2, 5-(2-chloro-4,5-difluoro-benzoylamino)-1H-pyrazole-3-carboxylic acid (4-carboxyphenyl)-methyl-amide] | < 0.1 µM | ++ | – | – | –
11 | O=C(NCc1c(Cl)cncc1Cl)c1cc(NC(=O)c2cc(F)c(F)cc2Cl)[nH]n1 [Example 1-135] | < 0.1 µM | + | – | – | –
12 | COCCN(C(=O)c1cc(NC(=O)c2cc(F)c(F)cc2Cl)[nH]n1)c1ccccc1 [Example 4-34] | < 0.1 µM | + | – | – | –
13 | Cc1ncccc1CNC(=O)c1cc(NC(=O)c2cc(F)c(F)cc2Cl)[nH]n1 [Example 2-28] | < 0.1 µM | + | – | – | –
14 | CN(C)C=Nc1ccccc1CNC(=O)c1cc(NC(=O)c2cc(F)c(F)cc2Cl)[nH]n1.Cl [Example 6-21] | – | – | < 0.1 µM | ++ | –
15 | COc1ccc(CNC(=O)c2cc(NC(=O)c3cc(F)c(F)cc3Cl)[nH]n2)cn1 [Example 5-1] | < 0.1 µM | – | – | – | +
16 | COc1ncccc1CNC(=O)c1cc(NC(=O)c2cc(F)c(F)cc2Cl)[nH]n1 [Example 3-35] | < 0.1 µM | ++ | – | – | –
17 | O=C(NCc1ccc(N2CCCC2)nc1)c1cc(NC(=O)c2cc(F)c(F)cc2Cl)[nH]n1 [Example 5-41] | < 0.1 µM | + | – | – | –
18 | CCOc1ccc(CNC(=O)c2cc(NC(=O)c3cc(F)c(F)cc3Cl)[nH]n2)cn1 [Example 1-37] | < 0.1 µM | + | – | – | –
19 | COc1nc(C)cc(C)c1CNC(=O)c1cc(NC(=O)c2cc(F)c(F)cc2Cl)[nH]n1 [Example 2-7-1, 5-(2-chloro-4,5-difluoro-benzoylamino)-1H-pyrazole-3-carboxylic acid (2-methoxy-4,6-dimethyl-pyridin-3-ylmethyl)-amide dihydrochloride] | < 0.1 µM | ++ | – | – | –
20 | CCCCN(C(=O)c1cc(NC(=O)c2cc(F)c(F)cc2Cl)[nH]n1)c1ccc(C(=O)O)cc1 [Example 4-41] | < 0.1 µM | + | – | – | –
